Consider 4 compounds from EP0039860A1, “Surfactants, their preparation and their use in cosmetic cleansing compositions, and cosmetic cleansing compositions mild to the skin containing them” (Henkel Kommanditgesellschaft auf Aktien, priority 1980, dated 1981).

The series relates to Zein. Put plainly: Zein test (skin compatibility: nitrogen solubilised from zein by surfactant solution, micro-Kjeldahl). Further details: species or system Mais. Particulars: 20 %ig surfactant solution, pH 7; 40 ml with 2 g Zein, 1 Stunde, 35° C; lower Zein number = better skin compatibility. The text has this:
Zur Bestimmung der Hautfreundlichkeit der erfindungsgemäßen neuartigen Tenside wurde der Zein-Test durchgeführt. Als Testprodukt diente das Neutralisationsprodukt von Fettalkohol-C12-C14-ether-monoschwefelsäureester mit circa 2 Mol Ethylenoxid mit N-ß-Hydroxyethyl-N-methyl- glucamin (Produkt A). Als Vergleichssubstanzen dienten Nonylbenzolsulfonat (Na-Salz), Natriumlaurylsulfat und Natrium-Fettalkohol-C12-C14-ethersulfat mit 2-Ethylenoxidgruppen im Molekül.
Die bei dem Zeintest erhaltene Zeinzahl gibt an, wieviel mg Stickstoff in 100 ml einer Tensidlösung enthalten sind, wenn diese 1 Stunde lang bei 35° C mit 2 g Zein versetzt wird. Je niedriger die Zeinzahl, um so besser ist die Hautverträglichieit des Produktes. Der Zein-Test wird in der nachfolgend beschriebenen Weise durchgeführt:
1. Ansetzen der Stammlösunsen:
Die 1/20 n Natronlauge wird mit Benzoesäure (DAB 6) eingestellt. Dazu werden circa 40 bis 50 mg Benzoesäure in einen 100 ml Erlenmeyerkolben eingewogen. und in ungefähr 25 ml neutralisiertem Ethylalkohol gelöst. Zum Neutralisieren wird der Alkohol mit einigen Tropfen verdünnter Natronlauge gegen Phenolphthalein bis zur bleibenden Rosafärbung versetzt. Die gelöste Benzoesäure wird nun mit der 1/20 n Natronlauge bis zur bleibenden Rosafärbung titriert und der Faktor berechnet: [drawing 2]
1.2. Schwefelsäure 1/20 n
Aus einer Mikrobürette läßt man 10 ml der 1/20 n Schwefelsäure in einen 100 ml Erlenmeyerkolben einlaufen, gibt 5 Tropfen Tashiro-Indikator hinzu und bringt die Vorlage am Destillierapparat an. In den Destillierkolben gibt man 20 ml 25 %ige Natronlauge, verdünnt mit destilliertem Wasser bis zur Hälfte des Volumens und destilliert 7 bis 10 Minuten. Die Vorlage wird nun abgenommen, und, nachdem mit etwas destilliertem Wasser das in Schwefelsäure eintauchende Glasrohr abgespült wurde, titriert man mit 1/20 n Natronlauge von violett auf blaugrün. Der erhaltene Wert ist der Blind-_ wert, der auch gleichzeitig eine Kontrolle des Destillier-Apparates ist und regelmäßig bestimmt wird. Diese Zahl wird der Berechnung des Stickstoffgehaltes zugrunde gelegt.
[…] Methylrot in 300 ml Ethanol und 0,40 g Methylenblau in 400 ml 50 %igem Ethanol.
1.4. 25 %ige Natronlauge aus NaOH-Plätzchen.
1.5. Das zu prüfende Tensid wird als x-prozentige Lösung mit destilliertem Wasser angesetzt und auf pH 7 eingestellt.
2. Aufbereitung des Zein:
Das verwendete Zein aus Mais (MG 20.000 - 30.000; ~98,5 % Protein) wird im Vakuumtrockenschrank bei maximal 40° C bis zur Gewichtskonstanz getrocknet.
3. Durchführung des Tests:
In eine 50 ml-Enghalsflasche mit Schraubverschluß werden 40 ml Tensidlösung pipettiert und in einem Wasserbad auf 35° C temperiert. […]
Regarding “Neutralisationsprodukt aus N-β-Hydroxyethyl-N-methylglucamin und Fettalkohol-C12-C14-ethermonoschwefelsäureester mit circa 2 Mol Ethylenoxid”, the Zein-Zahl is recorded as 223 mg Stickstoff in 100 ml. For `CCCCCCCCCCCCOS(=O)(=O)O` [Natriumlaurylsulfat], the Zein-Zahl was found to be 535 mg Stickstoff in 100 ml. “Natrium-Fettalkohol-C12-C14-ethersulfat mit 2-Ethylenoxidgruppen im Molekül [Fettalkohol-C12-C14-ethersulfat mit 2 EO]” had a Zein-Zahl of 329 mg Stickstoff in 100 ml. Consider Nonylbenzolsulfonat (Na-Salz), for which the Zein-Zahl is given as 620 mg Stickstoff in 100 ml.
